Measured values reported in US10933059B2, “Combination, application thereof and treatment method” (KANGPU BIOPHARMACEUTICALS, LTD., priority 2016, dated 2021).

Experiments:
Assay type in all cases: cell-based
PSA (Prostate antigen) = experiment: PSA inhibition rate experiment (PSA secretion in supernatant of VCap cells); settings: Homo sapiens, 120 h
Procedure: Cells were collected in exponential growth phase for viable cell count. The cell suspension was adjusted to 4.17×10E4/ml with the medium mentioned above. 120 μl of cell suspension was added to each well of a 96-well cell culture plateat, a final concentration of cells was 5000 cells/well. The cells were incubated overnight in a 37° C., 5% CO2 incubator.
10 mM stocking solution was prepared by dissolving each tested compound in DMSO. […] The final concentration of DMSO per well was 0.2%. The cells were incubated for 5 days in a 37° C., 5% CO2 incubator.
After 5 days' drug treatment, the cell supernatant of each well was collected, and centrifuged at 2000 r/min for 5 minutes, then transferred to a clean EP tube for PSA detection.
Wherein, Vsample is the PSA reading of the drug treatment group, and VDMSO is the average value of PSA of the solvent control group.

LNCap cells = experiment: CTG cell proliferation assay on LNCap cells (method of Effect embodiment 1); settings: tested compound alone
Vcap cells = experiment: CTG cell proliferation assay on Vcap cells (compounds alone or in combination, 5 days); settings: tested compound alone
Procedure: In vitro test of the inhibition effect of the compound in combination with androgen receptor pathway modulators on the prostate cancer cell proliferation.
Inhibition effect of the compounds such as B101, B102, B103, B104, B105, B106, C111 and the like, androgen receptor pathway modulators, hormone compounds, alone or in combination with each other on the prostate cancer cell proliferation were tested on Vcap cells (androgen receptor (+) prostate cancer cells) (ATCC, catalogue number CRL-2876). The specific experimental operation was as follows: 5×10^3 Vcap cells per well were inoculated into 96-well plates with transparent bottom and white wall (Corning, catalogue number CLS3903) containing the specific medium, and were cultured in a 37° C., 5% CO2 incubator for 24 hours. The tested compounds and the androgen receptor pathway modulators were prepared to a 150 mM stocking solution with DMSO (Sigma, catalogue number 276855), diluted with culture medium to the desired concentrations (the final concentration of DMSO is 0.2%), and then added to each well, 2 wells/concentration, followed by being incubated in a 37° C., 5% CO2 incubator for 5 days. The tested compounds were used alone or in combination with other androgen receptor pathway modulators and/or hormone compounds respectively. […] After that, 100 μl of CellTiter-Glo® cell viability assay reagent (Promega, catalogue number G7570) was added to each well and mixed well on a vibrator for 10 minutes to induce cell lysis. The 96-well plate was placed at room temperature for 10 minutes, so as to stabilize its luminescence signal. A white bottom membrane was pasted on the bottom of the plate and the plate was tested using EnSpire.

SMILES | inhibition at 0.5 µM (PSA (Prostate antigen)) [%] | Survival rate of LNCap cells (LNCap cells; 0.1 μM) [%] | Survival rate of LNCap cells (LNCap cells; 1 μM) [%] | Survival rate of LNCap cells (LNCap cells; 1 μM, listed as enzalutamide) [%] | Survival rate of LNCap cells (LNCap cells; 10 μM) [%] | viability at 0.1 µM (Vcap cells; Homo sapiens, VCaP, 120 h, 0.1 μM, read-out: Survival rate of Vcap cells) [%] | viability at 1 µM (Vcap cells; Homo sapiens, VCaP, 120 h, 1 μM, read-out: Survival rate of Vcap cells) [%] | viability at 10 µM (Vcap cells; Homo sapiens, VCaP, 120 h, 10 μM, read-out: Survival rate of Vcap cells) [%] | Survival rate of Vcap cells (Vcap cells; 1 μM) [%]
CNC(=O)c1ccc(N2C(=S)N(c3ccc(C#N)c(C(F)(F)F)c3)C(=O)C2(C)C)cc1F [Enzalutamide, reference compound] | 30.7 | 101.5 | 70.5 | 70.5 | 59.3 |  |  |  | 
C[C@]12CC[C@H](O)CC1=CC[C@@H]1[C@@H]2CC[C@]2(C)C(n3cnc4ccccc43)=CC[C@@H]12 [Galeterone, reference compound] |  | 104.9 | 79 |  | 24.2 | 95.9 | 62.8 | 19.3 | 62.8
